According to patent US7307166B1, “Oxpurine nucleosides and their congeners, and acyl, derivatives thereof, for improvement of hematopoiesis” (Wellstat Therapeutics Corporation, priority 1987, dated 2007):

What was measured:
Type in all cases: in vivo, mouse
[1] = system: bone marrow cells; test: Colony forming units in bone marrow of mice recovering from cyclophosphamide
Experimental: Seventy-two Balb/C female mice weighing approximately 20-grams each were given cyclophosphamide (275 mg/kg) by intraperitoneal (i.p.) injection. Twenty-four hours later and each day thereafter, mice received a 0.4 ml i.p. injection of either physiological saline (control) or palmitoylguanosine (2.5 μmoles/mouse/day in 0.2% Tween 80). On days 3, 5, 7, and 10 following CP administration 6 animals from each group were sacrificed by cervical dislocation, and the left femur of each animal obtained by sterile means. The bone marrow cells were then flushed from the femurs with McCoy's 5a Modified medium using a 23-gauge needle. Cells from femurs in the same group were pooled, dispersed by briefly vortexing, and counted using a hemocytometer. Cell suspensions were added to McCoy's Modified 5a medium containing 15% bovine calf serum, 1× Kanamycin, 0.3% agar, and 3% endotoxin-stimulated serum. […] Each group was plated in quintuplicate. After 7 days in culture (at 37° in 5% CO2 and humidified air) aggregates of 50 cells or more (“colonies”) were counted using a dissecting microscope at 25×.

[2] = system: Balb/C female mice; test: Hematopoietic recovery after cyclophosphamide in mice (spleen weight, blood cell counts)
[3] = system: Balb/C female mice; test: Hematopoietic recovery after 5-fluorouracil in mice
Experimental: 5-fluorouracil (5-FU) (150 mg/kg, i.p.) was administered to forty Balb/C female mice weighing approximately 20 grams each. Twenty-four hours later and each day thereafter for a total of 8 days, mice were given a 0.4 ml i.p. injection of either physiological saline (controls) or 5′-O-palmitoylguanosine (2.5 μmoles/mouse/day in 0.2% Tween 80). On days 7 and 14 following 5-FU administration half of the animals from each group were bled and then were sacrificed by cervical dislocation. Spleens were removed and weighed, and complete blood cells counts performed.
5-fluorouracil (5-FU) (150 mg/kg, i.p.) was administered to fifty-four Balb/C female mice weighing approximately 20 grams each. Twenty-four hours later and each day thereafter for a total of 7 days, mice were given a 0.4 ml i.p. injection of either physiological saline (controls) or palmitoylguanosine (2.5 μmoles/mouse/day in 0.2% Tween 80). On days 8, 10 and 12 following administration of 5-FU nine animals from each group were bled and then sacrificed by cervical dislocation. Spleens were removed and weighed, and complete blood cell counts performed.
Twenty-eight female Balb/C mice weighing approximately 20 grams each received a 0.4 ml i.p. injection of either physiological saline (controls), or palmitoyldeoxyguanosine (1 μmole/mouse) daily for three days. On the fourth day 5-fluorouracil (5-FU) (150 mg/kg, i.p.) was administered to all 28 of the animals. On days 5, 8 and 11 following 5-FU administration 4 (day 5) or 5 (days 8 and 11) animals from both groups were bled and then sacrificed by cervical dislocation. Spleens were removed and weighed, and complete blood cell counts performed. […]
Sixty female Balb/C mice weighing approximately 20 grams each were distributed into one of five treatment groups and treated once daily for three days by i.p. injection with 3′,5′-O—N^2-tripalmitoyl-2′-deoxyguanosine at a dose of either 1, 5, 10, 25, or 50 mg/kg/treatment in a Tween-DMSO vehicle (0.2% Tween-80 and 7.5% DMSO in physiological saline). Injection volume was 0.4 ml. An additional twelve animals (controls) received vehicle alone on those three days. On the fourth day all seventy-two animals received a single i.p. injection of 5-fluorouracil (5-FU) at a dose of 150 mg/kg. On days 7 and 10 following 5-FU administration six mice from each group were bled and then sacrificed by cervical dislocation. Six untreated mice were also bled and sacrificed to provide data on normal (basal) values. Spleens were removed and weighed, and complete blood cell counts performed.

[4] = Ex 47: day 7 after CP, 2.5 μmoles/mouse/day
[5] = Ex 53: day 5 after CP, palmitoylguanosine 2.0, palmitoyldeoxyguanosine 1.0 μmoles/mouse
[6] = Ex 53: day 7 after CP, palmitoylguanosine 1.0 and 2.0, palmitoyldeoxyguanosine 1.0 μmoles/mouse

Q: `CCCCCCCCCCCCCCCC(=O)OC[C@H]1O[C@@H](n2cnc3c(=O)[nH]c(N)nc32)[C@H](O)[C@@H]1O` was tested. Which “colony-forming units per femur” value ([1]; Day 3 after CP, 2.5 μmoles/mouse/day in 0.2% Tween 80 i.p.) did it give?
A: 645 ± 26

Q: And the “colony-forming units per femur” value ([1]; Day 5 after CP, 2.5 μmoles/mouse/day)?
A: 2327 ± 121

Q: What about the “colony-forming units per femur” value ([1]; Day 7 after CP, 2.5 μmoles/mouse/day) of the same compound?
A: 1328 ± 140

Q: What about the “colony-forming units per femur” value ([1]; Day 10 after CP, 2.5 μmoles/mouse/day) of the same compound?
A: 647 ± 25

Q: And the “white blood cell (WBC) counts” value ([2]; Ex 38: day 7 after CP, guanosine 5, acyl derivatives 2.5 μmoles/mouse/day in 0.2% Tween 80)?
A: greatest effect

Q: What about the spleen weight ([2]; Ex 41: day 7 after CP, 5 μmoles/mouse/day in 0.2% Tween 80 on days 1-2, 1-4, 3-5, 4-6 or 1-6, vs saline) of the same compound?
A: significantly greater

Q: What about the “Total white blood cell (WBC) counts” value ([2]; Ex 41: day 7 after CP, 5 μmoles/mouse/day, each timing group, vs saline) of the same compound?
A: significantly greater

Q: What about the lymphocyte counts ([2]; Ex 41: day 7 after CP, treatment on days 1-2 or 1-6) of the same compound?
A: elevated

Q: What about the total neutrophil counts ([2]; Ex 41: day 7 after CP, treatment on days 1-6) of the same compound?
A: greatest increase

Q: What about the Neutrophils [2, 4] of the same compound?
A: significantly elevated

Q: What about the spleen weight [2, 4] of the same compound?
A: significantly elevated

Q: And the “total white blood cells” value ([2]; Ex 47: day 7 after CP, 2.5 μmoles/mouse/day in 0.2% Tween 80 i.p. 6 days)?
A: significantly elevated

Q: What about the spleen weight ([2]; Ex 50: day 5 after CP, 2 μmoles/mouse) of the same compound?
A: significantly elevated

Q: What about the total neutrophil counts ([2]; Ex 53: day 5 after CP, 1.0 μmoles/mouse) of the same compound?
A: significantly increased

Q: And the spleen weight [2, 5]?
A: significantly elevated

Q: What about the total neutrophil counts [2, 5] of the same compound?
A: significantly elevated

Q: What about the “white blood cell counts” value [2, 5] of the same compound?
A: significantly elevated

Q: And the spleen weight [2, 6]?
A: significantly elevated

Q: And the total neutrophil counts [2, 6]?
A: significantly elevated

Q: And the “white blood cell counts” value [2, 6]?
A: significantly elevated

Q: And the spleen weight ([3]; Ex 42: day 7 after 5-FU 150 mg/kg, 2.5 μmoles/mouse/day in 0.2% Tween 80 i.p. 8 days)?
A: slight, but statistically significant, increase

Q: What about the Lymphocytes ([3]; Ex 42: day 14 after 5-FU) of the same compound?
A: significantly higher

Q: And the Neutrophils ([3]; Ex 42: day 14 after 5-FU)?
A: significantly higher

Q: What about the Platelets ([3]; Ex 42: day 14 after 5-FU) of the same compound?
A: significantly higher

Q: What about the spleen weight ([3]; Ex 42: day 14 after 5-FU) of the same compound?
A: significantly heavier

Q: What about the total leukocytes ([3]; Ex 42: day 14 after 5-FU) of the same compound?
A: significantly higher

Q: And the number of platelets ([3]; Ex 43: day 8 after 5-FU, 2.5 μmoles/mouse/day in 0.2% Tween 80 i.p. 7 days)?
A: significantly greater

Q: And the number of platelets ([3]; Ex 43: day 10 after 5-FU)?
A: greater numbers

Q: What about the spleen size ([3]; Ex 43: day 10 after 5-FU) of the same compound?
A: significantly larger

Q: And the “number of neutrophils vs control” value ([3]; Ex 43: day 12 after 5-FU)?
A: 3 fold

Q: And the “spleen weight vs control mice” value ([3]; Ex 43: day 12 after 5-FU)?
A: more than double
